Columns and labels:
eIF-2-alpha kinase GCN2 = eIF-2-alpha kinase GCN2 (Homo sapiens, UniProt Q9P2K8); assay: Biochemical Assay for GCN2
Method: Activity of GCN2 kinase was determined using a TR-FRET kinase activity assay (e.g. Riddle et al. Analytical Biochemistry (2006) 356(1) 108-116). Assays were conducted in 384-well plates (13 μL assay volume) using 2 nM GCN2 (Carna Biosciences), 130 nM GFP-EIf2α (Invitrogen), 0.2 mg/mL E. coli tRNA (sigma) and 1 mM ATP in kinase buffer (Invitrogen). Inhibition of GCN2 was measured by adding serial diluted test compound (final assay concentration of 0.5% DMSO) followed by a 3-hour incubation. Tb-peIF2α (pSer52) antibody (Invitrogen) (2 nM final assay concentration) in kinase buffer containing ETDA (final assay concentration of 20 mM) was added. After a 60 min incubation at room temperature, TR-FRET was monitored using an excitation wavelength of 340 nm and emission wavelengths of 490 nm and 520 nm. The emission ratio (520/490) at each compound concentration of was converted to percent inhibition using controls (i.e. reaction with no test compound and reaction with a known inhibitor) and IC50 values were calculated by fitting a four-parameter sigmoidal curve to the data using Prism (GraphPad software).

[1] = biological target: T1, Eukaryotic translation initiation factor 2-alpha kinase 3 [563-1115] (Homo sapiens, UniProt Q9NZJ5); assay: Biochemical Assay for PERK
T1 construct: 563-1115
T1 sequence (Q9NZJ5 whole entry): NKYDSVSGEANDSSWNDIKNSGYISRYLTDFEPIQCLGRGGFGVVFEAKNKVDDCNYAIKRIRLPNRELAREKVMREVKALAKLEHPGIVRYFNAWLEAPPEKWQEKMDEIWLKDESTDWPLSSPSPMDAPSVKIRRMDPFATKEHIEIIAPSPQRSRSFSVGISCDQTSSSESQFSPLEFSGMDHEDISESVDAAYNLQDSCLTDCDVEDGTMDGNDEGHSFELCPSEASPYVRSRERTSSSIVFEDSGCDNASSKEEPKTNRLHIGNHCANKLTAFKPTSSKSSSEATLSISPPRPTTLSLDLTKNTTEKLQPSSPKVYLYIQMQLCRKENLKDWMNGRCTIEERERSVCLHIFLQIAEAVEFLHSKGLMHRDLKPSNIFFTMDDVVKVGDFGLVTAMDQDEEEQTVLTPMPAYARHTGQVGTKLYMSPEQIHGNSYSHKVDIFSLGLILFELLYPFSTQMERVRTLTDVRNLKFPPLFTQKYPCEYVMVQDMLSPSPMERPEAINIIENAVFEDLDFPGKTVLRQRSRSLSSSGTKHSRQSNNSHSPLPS
Method: Activity of PERK kinase was determined spectroscopically using a coupled pyruvate kinase/lactate dehydrogenase assay that continuously monitors the ATP hydrolysis-dependent oxidation of NADH (e.g., Schindler et al. Science (2000) 289: 1938-1942). Assays were conducted in 384-well plates (100 μL final volume) using 10 nM PERK (from Beryllium), 0.25 mg/mL Myelin Basic Protein substrate, 1.5 units pyruvate kinase, 2.1 units lactate dehydrogenase, 1 mM phosphoenol pyruvate, 0.28 mM NADH and 1 mM ATP in assay buffer (100 mM Tris, pH 7.5, 15 mM MgCl2, 0.5 mM DTT, 0.004% (w/v) BSA, and 0.004% Triton X-100). Inhibition of PERK was measured by adding serial diluted test compound (final assay concentration of 1% DMSO). A decrease in absorption at 340 nm was monitored continuously for 6 hours at 30° C. on a multi-mode microplate reader (BioTek). The reaction rate was calculated using the 2-3 h time frame. The reaction rate at each concentration of compound was converted to percent inhibition using controls (i.e. reaction with no test compound and reaction with a known inhibitor) and IC50 values were calculated using software routines in Prism (GraphPad software).

eIF-2-alpha kinase GCN2, sequence (Q9P2K8 whole entry): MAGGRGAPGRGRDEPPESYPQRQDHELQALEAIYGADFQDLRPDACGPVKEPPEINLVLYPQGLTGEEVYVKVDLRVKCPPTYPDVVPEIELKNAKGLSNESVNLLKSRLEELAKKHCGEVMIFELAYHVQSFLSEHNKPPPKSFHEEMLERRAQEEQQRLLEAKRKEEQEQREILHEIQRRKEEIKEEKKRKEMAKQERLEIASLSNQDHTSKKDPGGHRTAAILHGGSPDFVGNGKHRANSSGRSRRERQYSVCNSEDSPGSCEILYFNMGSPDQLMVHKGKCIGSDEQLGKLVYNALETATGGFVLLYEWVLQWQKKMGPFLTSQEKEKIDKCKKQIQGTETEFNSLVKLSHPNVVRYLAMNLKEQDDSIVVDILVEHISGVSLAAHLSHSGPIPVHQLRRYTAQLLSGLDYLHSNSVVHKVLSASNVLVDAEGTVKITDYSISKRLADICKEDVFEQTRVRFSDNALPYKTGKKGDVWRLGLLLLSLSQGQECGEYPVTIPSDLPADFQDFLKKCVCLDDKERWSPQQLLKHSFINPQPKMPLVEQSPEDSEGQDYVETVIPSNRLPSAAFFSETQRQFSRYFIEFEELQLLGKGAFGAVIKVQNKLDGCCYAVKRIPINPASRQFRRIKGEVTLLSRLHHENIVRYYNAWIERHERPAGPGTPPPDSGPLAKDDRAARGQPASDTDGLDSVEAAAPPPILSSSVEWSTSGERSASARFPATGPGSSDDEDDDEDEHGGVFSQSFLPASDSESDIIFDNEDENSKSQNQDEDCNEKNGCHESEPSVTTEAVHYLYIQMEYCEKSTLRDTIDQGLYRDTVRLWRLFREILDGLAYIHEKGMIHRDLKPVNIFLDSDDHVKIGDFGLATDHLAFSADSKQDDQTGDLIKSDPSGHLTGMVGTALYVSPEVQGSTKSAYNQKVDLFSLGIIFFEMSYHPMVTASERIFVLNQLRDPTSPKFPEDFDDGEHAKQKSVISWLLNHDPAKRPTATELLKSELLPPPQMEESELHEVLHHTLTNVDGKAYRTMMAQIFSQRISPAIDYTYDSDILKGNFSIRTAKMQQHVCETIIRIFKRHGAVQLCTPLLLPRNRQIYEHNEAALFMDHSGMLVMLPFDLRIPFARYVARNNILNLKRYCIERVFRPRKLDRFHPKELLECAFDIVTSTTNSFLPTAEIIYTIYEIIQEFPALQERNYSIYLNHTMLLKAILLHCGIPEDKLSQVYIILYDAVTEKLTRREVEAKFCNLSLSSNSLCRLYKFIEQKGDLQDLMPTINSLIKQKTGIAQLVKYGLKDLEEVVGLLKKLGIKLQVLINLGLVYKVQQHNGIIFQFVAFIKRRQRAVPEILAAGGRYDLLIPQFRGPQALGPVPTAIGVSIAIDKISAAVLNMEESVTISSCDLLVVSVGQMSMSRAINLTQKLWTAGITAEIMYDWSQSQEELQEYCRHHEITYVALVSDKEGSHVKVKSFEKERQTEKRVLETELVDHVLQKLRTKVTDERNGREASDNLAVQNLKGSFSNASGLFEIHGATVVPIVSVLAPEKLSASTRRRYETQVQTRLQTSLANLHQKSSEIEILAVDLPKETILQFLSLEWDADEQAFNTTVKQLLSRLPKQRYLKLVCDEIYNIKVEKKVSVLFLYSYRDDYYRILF

CNc1ncc2cc(-c3cc(F)cc(NS(=O)(=O)c4cc(Cl)cnc4OC)c3)c(C)nc2n1 [US11912668, Example 65]
IC50 (eIF-2-alpha kinase GCN2): < 100 nM

CNc1cc2nc(N)c(-c3cccc(NS(=O)(=O)c4cc(Cl)cc(CO)c4Cl)c3F)cc2cn1 [US11912668, Example 171]
IC50 (eIF-2-alpha kinase GCN2): < 100 nM
IC50 [1]: < 100 nM

Cc1nc2cc(N)ncc2cc1-c1cccc(NS(=O)(=O)c2cc(Cl)cc(CO)c2Cl)c1F [US11912668, Example 174]
IC50 (eIF-2-alpha kinase GCN2): < 100 nM
IC50 [1]: < 100 nM

Source: BindingDB's records for patent US11912668 (Deciphera Pharmaceuticals, 2024)
